{
  "source": "patent US6399089B1",
  "about": "“Compositions and methods for regulating metabolism and balancing body weight” (priority 2000, dated 2002)",
  "origin": "cited, not measured here",
  "key": {"[1]": {"conditions": "rats"}, "[2]": {"conditions": "200 mcg, after 26 weeks, obese patients, very low calorie diet"}},
  "note": "Where two headings read alike, the source gives them in different places.",
  "data": [
    {"compound": "CC(=O)Oc1ccccc1C(=O)O", "note": "[aspirin]", "values": [
      {"measurement": "thermogenic response of ephedrine during a meal", "setting": "lean women", "result": "not lean women"},
      {"measurement": "thermogenic response of ephedrine during a meal", "setting": "obese women", "result": "potentiated"}
    ]},
    {"compound": "CN[C@@H](C)[C@H](O)c1ccccc1", "note": "[ephedrine]", "values": [
      {"measurement": "increase in energy expenditure", "setting": "[1]", "result": 9, "unit": "%"},
      {"measurement": "reduction of body fat", "setting": "[1]", "result": 50, "unit": "%"},
      {"measurement": "reduction of body weight", "setting": "[1]", "result": 18, "unit": "%"}
    ]},
    {"compound": "chromium picolinate", "values": [
      {"measurement": "lean body mass", "setting": "[2]", "result": "increased lean body mass"}
    ]}
  ]
}
